Measured values published in patent US7718651B2, “Inhibitors of FtsZ and uses thereof” (priority 2002, dated 2010).

Tested on: M. tuberculosis H37Rv
Assay: microbe, parasite or virus in culture
Format: cell-based
Details: not given

Row | SMILES | % Inh
1 | CCOC(=O)Nc1cc2c(c(N)n1)N=C(c1ccccc1)[C@H](C)N2 [Compound A129] | 28%
2 | CCOC(=O)Nc1cc2c(c(N)n1)N=C(c1ccccc1)[C@H](C)N2 [Compound A110] | 43%

Same assay, conditions: M. tuberculosis H37Rv, screen concentration 12.5 g/ml [sic], Table 8

Row | SMILES | % Inh
3 | CCOC(=O)Nc1cc2c(c(N)n1)N=C(c1ccc(O)cc1)[C@H](C)N2 [Compound A164] | 8%
4 | CCOC(=O)Nc1cc(N)c2nnsc2n1 [Compound A218] | 0%
5 | CCOC(=O)Nc1cc(NCC(=O)c2ccc(OC)cc2)c([N+](=O)[O-])c(N)n1 [Compound A237] | 0%
6 | CCOC(=O)Nc1cc(NC/C(=N/O)c2ccc(C(F)(F)F)cc2)c([N+](=O)[O-])c(N)n1 [Compound A221] | 0%
7 | CCOC(=O)Nc1cc(NCCC(O)c2ccccc2)c([N+](=O)[O-])c(N)n1 (stereo not drawn) [Compound A115] | 41%
8 | CCOC(=O)Nc1cc(NC/C(=N/O)c2ccc(Cl)cc2)c([N+](=O)[O-])c(N)n1 [Compound A239] | 0%
9 | CCOC(=O)Nc1cc(NCC(O)CN(C)c2ccc(Cl)cc2)c([N+](=O)[O-])c(N)n1 (stereo not drawn) [Compound A122] | 31%
10 | CCOC(=O)Nc1cc(NC(c2ccccc2)c2ccccc2)c(/N=C/c2ccc(Cl)cc2Cl)c(N)n1 [Compound A263] | 0%
11 | CCOC(=O)Nc1cc(NC/C(=N/O)c2ccc(OC)cc2)c([N+](=O)[O-])c(N)n1 [Compound A182] | 2%
12 | CCOC(=O)Nc1cc(NC(C)C(O)c2ccc(O)cc2)c([N+](=O)[O-])c(N)n1 (stereo not drawn) [Compound A303] | −2%
13 | CCOC(=O)Nc1cc2[nH]c(-c3ccc(OC)cc3)nc2c(N(CCc2ccccc2)Cc2ccccc2)n1 [Compound A16] | 98%
14 | CCOC(=O)Nc1cc2[nH]c(-c3ccc(Cl)cc3)nc2c(N(CCc2ccccc2)Cc2ccccc2)n1 [Compound A4] | 99%
15 | COC(=O)Nc1cc2c(c(N)n1)N=C(c1ccccc1)[C@H](C)N2 [Compound A113] | 41%
16 | CCOC(=O)Nc1cc(NC(C)/C(=N/O)c2ccccc2)c([N+](=O)[O-])c(N)n1 (stereo not drawn) [Compound A172] | 5%
17 | CCOC(=O)Nc1cc2[nH]c(-c3ccc4c(c3)OCO4)nc2c(N(CCc2ccccc2)Cc2ccccc2)n1 [Compound A151] | 14%
18 | CCOC(=O)Nc1cc2[nH]cnc2c(Cl)n1 [Compound A203] | 0%
19 | CCOC(=O)Nc1cc2c(c(/N=C/N(C)C)n1)N=C(c1ccccc1)CO2 [Compound A230] | 0%
20 | CCOC(=O)Nc1cc(NC(c2ccccc2)c2ccccc2)c(N)c(N)n1 [Compound A117] | 40%
21 | CCOC(=O)Nc1cc(NC(c2ccccc2)c2ccccc2)c([N+](=O)[O-])c(Cl)n1 [Compound A299] | 0%
22 | CCOC(=O)Nc1cc(NC(C)C(=O)c2ccccc2)c([N+](=O)[O-])c(N)n1 (stereo not drawn) [Compound A161] | 9%
23 | CCOC(=O)Nc1cc(NC(c2ccccc2)c2ccccc2)c([N+](=O)[O-])c(N)n1 [Compound A264] | 0%
24 | CCOC(=O)Nc1cc(N(C)/N=C/c2ccccc2)c([N+](=O)[O-])c(N)n1 [Compound A204] | 0%
25 | CCOC(=O)Nc1cc(Cl)c2ncc(-c3ccc(Cl)cc3)nc2n1 [Compound A187] | 1%
26 | CCOC(=O)Nc1cc2[nH]c(=O)c(-c3ccccc3)nc2c(N)n1 [Compound A196] | 0%
27 | CCOC(=O)Nc1cc(N)c2nc[nH]c2n1 [Compound A217] | 0%

Row | SMILES | % Inh
28 | CCOC(=O)Nc1cc(Cl)c([N+](=O)[O-])c(NC(=O)OCC)n1 [Compound A94] | 59%
29 | CCCCC(O)C(C)Nc1cc(NC(=O)OCC)nc(N)c1N (stereo not drawn) [Compound A181] | 3%
30 | CCOC(=O)Nc1cc2c(c(N)n1)N=C(c1ccccc1)CN2 [Compound A65] | 83%
31 | CCOC(=O)Nc1cc(N[C@@H](C)C(=O)c2ccc(O)cc2)c([N+](=O)[O-])c(N)n1 [Compound A304] | −2%
32 | CCOC(=O)Nc1cc(NCC(=O)c2ccc(Cl)cc2)c([N+](=O)[O-])c(N)n1 [Compound A240] | 0%
33 | CCOC(=O)Nc1cc(N/N=C/c2ccccc2)c2nc(SCc3ccccc3)[nH]c2n1 [Compound A57] | 89%
34 | CCOC(=O)Nc1cc2oc(=O)c(-c3ccccc3)nc2c(N)n1 [Compound A228] | 0%
35 | CCOC(=O)Nc1cc(N)c([N+](=O)[O-])c(N)n1 [Compound A162] | 8%
36 | CCOC(=O)Nc1cc(NC(C)CCCN(CC)CC)c([N+](=O)[O-])c(N)n1 (stereo not drawn) [Compound A243] | 0%
37 | CCOC(=O)Nc1cc2[nH]c(-c3ccc(C)cc3)nc2c(N(CCc2ccccc2)Cc2ccccc2)n1 [Compound A145] | 16%
38 | CCOC(=O)Nc1cc(Cl)c2nc(-c3ccccc3)[nH]c2n1 [Compound A234] | 0%
39 | CCOC(=O)Nc1cc2c(c(N)n1)N=C(c1ccc(O)cc1)[C@@H](C)N2 [Compound A166] | 8%
40 | CCOC(=O)Nc1cc(N)c2ncc(-c3cc(OC)c(OC)c(OC)c3)nc2n1 [Compound A147] | 15%
41 | COC(=O)Nc1cc(Cl)cc(NC(=O)OC)n1 [Compound A201] | 0%
42 | CCOC(=O)Nc1cc(Nc2ccccc2)c2nc[nH]c2n1.Cl [Compound A64] | 84%
43 | CCCCNC(=O)Oc1ccc(C2=Nc3c(cc(NC(=O)OCC)nc3N)N[C@@H]2C)cc1 [Compound A171] | 7%
44 | CCOC(=O)Nc1cc(NC(C)[C@H](O)c2ccccc2)c(N)c(N)n1 (stereo partly drawn) [Compound A99] | 56%
45 | COc1ccc(OC)c(-c2nc3c(N(CCc4ccccc4)Cc4ccccc4)nc(NC(=O)O)cc3[nH]2)c1 [Compound A30] | 97%
46 | CCOC(=O)Nc1cc2[nH]c(-c3ccc(CC)cc3)nc2c(N(CCc2ccccc2)Cc2ccccc2)n1 [Compound A17] | 98%
47 | CCOC(=O)Nc1cc(NCC(O)CN(C)C)c([N+](=O)[O-])c(N)n1 (stereo not drawn) [Compound A232] | 0%
48 | CCOC(=O)Nc1cc(NCCc2ccc(S(=O)(=O)N(CC)CC)cc2)c2nccnc2n1 [Compound A252] | 0%
49 | CCOC(=O)N(Cc1ccccc1)c1cc(Cl)c([N+](=O)[O-])c(N)n1 [Compound A293] | 0%
50 | Br.CCOC(=O)Nc1cc(N)c([N+](=O)[O-])c(NCC(C)=O)n1 [Compound A75] | 72%
51 | CCOC(=O)Nc1cc2c(c(NC(=O)CBr)n1)N=C(c1ccccc1)CO2 [Compound A229] | 0%
52 | CCOC(=O)Nc1cc(NC(C)CCCN(CC)CC)c([N+](=O)[O-])c(N)n1.Cl (stereo not drawn) [Compound A269] | 0%

Row | SMILES | % Inh
53 | CCOC(=O)Nc1cc(N[C@@H](C)C(O)c2ccccc2)c([N+](=O)[O-])cn1 (stereo partly drawn) [Compound A309] | −10%
54 | CCOC(=O)Nc1cc2[nH]c(-c3cc(OC)c(OC)cc3OC)nc2c(N(CCc2ccccc2)Cc2ccccc2)n1 [Compound A29] | 97%
55 | CCOC(=O)Nc1cc(N)c2nc(C)cnc2n1 [Compound A282] | 0%
56 | CCOC(=O)Nc1cc2c(c(N)n1)N=C(CN(C)c1ccc(OC)cc1)CN2 [Compound A138] | 20%
57 | CCOC(=O)Nc1cc(NC(C)C(=O)c2ccccc2)c([N+](=O)[O-])cn1 (stereo not drawn) [Compound A314] | −36%
58 | CCOC(=O)Nc1cc(NC(c2ccccc2)c2ccccc2)c2ncc(O)nc2n1 [Compound A61] | 87%
59 | CCOC(=O)Nc1cc(NCC(O)CN)c([N+](=O)[O-])c(NC(=O)OCC)n1 (stereo not drawn) [Compound A271] | 0%
60 | CCOC(=O)Nc1cc(NC(CC)C(=O)c2ccccc2)c([N+](=O)[O-])c(N)n1 (stereo not drawn) [Compound A307] | −8%
61 | CCOC(=O)Nc1cc(NC(c2ccccc2)c2ccccc2)c2nc(O)[nH]c2n1 [Compound A134] | 23%
62 | CCOC(=O)Nc1cc2ncc(CN(C)c3ccccc3)nc2c(N)n1 [Compound A78] | 71%
63 | CCOC(=O)Nc1cc2c(cn1)N=C(c1ccccc1)[C@H](C)N2 [Compound A105] | 49%
64 | CCOC(=O)Nc1cc(NC/C(=N/O)c2ccc([N+](=O)[O-])cc2)c([N+](=O)[O-])c(N)n1 [Compound A238] | 0%
65 | CCOC(=O)Nc1cc(NC/C(CNc2ccc(C(=O)OCC)cc2)=N/O)c([N+](=O)[O-])c(N)n1 [Compound A291] | 0%
66 | CCOC(=O)Nc1cc(Cl)c2nc(-c3cc(OC)c(OC)c(OC)c3)c(-c3cc(OC)c(OC)c(OC)c3)nc2n1 [Compound A268] | 0%
67 | CCOC(=O)Nc1cc(NC(c2ccccc2)c2ccccc2)c2ncc(=O)[nH]c2n1 [Compound A270] | 0%
68 | CCOC(=O)Nc1cc(NC/C(CN(C)c2ccccc2)=N/O)c([N+](=O)[O-])c(N)n1 [Compound A127] | 30%
69 | CCOC(=O)Nc1cc2[nH]c(-c3ccc([N+](=O)[O-])cc3)nc2c(N(CCc2ccccc2)Cc2ccccc2)n1 [Compound A14] | 98%
70 | CCOC(=O)Nc1cc2ncc(-c3ccccc3)nc2c(NC(C)=O)n1 [Compound A159] | 10%
71 | CCOC(=O)Nc1cc2ncc(CNc3ccc(C(=O)OCC)cc3)nc2c(N)n1 [Compound A289] | 0%
72 | CCOC(=O)Nc1cc2c(c(N)n1)N=C(c1ccccc1)CO2 [Compound A224] | 0%
73 | CCOC(=O)Nc1cc(NC(c2ccccc2)c2ccccc2)c2[nH]c(=O)cnc2n1 [Compound A70] | 76%
74 | CCOC(=O)Nc1cc(NCCCCc2ccccc2)c([N+](=O)[O-])c(N)n1 [Compound A90] | 62%
75 | CCOC(=O)Nc1cc2[nH]c(-c3ccc(C)cc3)nc2c(N(CC)CC)n1 [Compound A13] | 98%
76 | CCOC(=O)Nc1cc(N)c2c(n1)NCC(C)=N2 [Compound A283] | 0%
77 | CCOC(=O)Nc1cc2c(c(N)n1)N=C(c1cccc(N)c1)C(C)N2 (stereo not drawn) [Compound A167] | 7%

Same assay, conditions: Mycobacterium tuberculosis; M. tuberculosis H37Rv; at 12.5% μg/ml (so in the source); read-out: Primary Screen PI (% inhibition of growth)

Row | SMILES | inhibition of growth at 12.5 µg/mL
78 | CCOC(=O)Nc1cc2c(c(N)n1)N=C(CN(C)c1ccc(OC)cc1)CN2 [SRI-5713, (5-Amino-3-{[(4-methoxy-phenyl)-methyl-amino]-methyl}-1,2-dihydro-pyrido[3,4-b]pyrazin-7-yl)-carbamic acid ethyl ester] | 20%
